Experimental data: patent US7834023B2 (Portola Pharmaceuticals, Inc., priority 2006, dated 2010)

Key:
P2Y12 receptor = biological target: T1, P2Y12 receptor (Homo sapiens, UniProt Q9H244); assay: platelet ADP receptor binding assay (ARB): inhibition of [3H]2-MeS-ADP binding to platelets; settings: [3H]2-MeS-ADP binding to apyrase-washed human platelets
T1 construct: endogenous in cells; host or cells: human platelets (outdated from blood banks or fresh), apyrase-washed, whole
Outline: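 Apyrase-washed human platelets (1×10^8 per well) were preincubated 5 min with serial compound dilutions in Hepes-Tyrode's/0.1% BSA/0.6% DMSO, then incubated 15 min at room temperature with 1 nM [3H]2-MeS-ADP. Filter-bound radioactivity gave specific binding (nonspecific: 10 μM 2-MeS-ADP), and IC50s came from non-linear regression.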

[1] = system: human platelet-rich plasma (PRP); assay: PRP assay: inhibition of ADP-mediated platelet aggregation in vitro; assay type: cell-based; settings: ADP-induced aggregation
Protocol: The effect of testing the compound according to the invention on ADP-induced human platelet aggregation was assessed in a 96-well microtiter assay (see generally the procedures in Jantzen, H. M. et al. (1999) Thromb. Hemost. 81:111-117) or standard cuvette light transmittance aggregometry using either human platelet-rich plasma (PRP) or human washed platelets.
For preparation of human platelet-rich plasma for aggregation assays, human venous blood was collected from healthy, drug-free volunteers into 0.38% sodium citrate (0.013 M, pH 7.0 final). Platelet-rich plasma (PRP) is prepared by centrifugation of whole blood at 160×g for 20 minutes at room temperature. The PRP layer is removed, transferred to a new tube, and the platelet count is adjusted, if necessary, to achieve a platelet concentration of ˜3×10^8 platelets/ml using platelet-poor plasma (PPP). PPP is prepared by centrifugation of the remaining blood sample (after removal of PRP) for 20 minutes at 800×g. This preparation of PRP can subsequently be used for aggregation assays in either a 96-well plate or standard cuvette aggregometry.
For cuvette light transmittance aggregation assays, serial dilutions (1:3) of test compounds were prepared in 100% DMSO in a 96 well V-bottom plate (final DMSO concentration in the cuvette was 0.6%). The test compound (3 μl of serial dilutions in DMSO) was preincubated with PRP for 30-45 seconds prior to initiation of aggregation reactions, which were performed in a ChronoLog aggregometer by addition of agonist (5 or 10 μM ADP) to 490 μL of PRP at 37° C. In some cases, light transmittance aggregometry was performed using 490 μL of washed platelets (prepared as described above) at 37° C., and aggregation was initiated by addition of 5 μM ADP and 0.5 mg/ml human fibrinogen (American Diagnostics, Inc., Greenwich, Conn.). The aggregation reaction is recorded for ˜5 min, and maximum extent of aggregation is determined by the difference in extent of aggregation at baseline, compared to the maximum aggregation that occurs during the five minute period of the assay. Inhibition of aggregation was calculated as the maximum aggregation observed in the presence of inhibitor, compared to that in the absence of inhibitor. IC50s were derived by non-linear regression analysis using the Prism software (GraphPad, San Diego, Calif.).
Inhibition of ADP-dependent aggregation was also determined in 96-well flat-bottom microtiter plates using a microtiter plate shaker and plate reader similar to the procedure described by Frantantoni et al., Am. J. Clin. Pathol. 94, 613 (1990). All steps are performed at room temperature. For 96-well plate aggregation using platelet-rich plasma (PRP), the total reaction volume of 0.2 ml/well includes 180 μl of PRP (˜3×10^8 platelets/ml, see above), 6 μl of either serial dilution of test compounds in 20% DMSO or buffer (for control wells), and 10 μl of 20×ADP agonist solution (100 μM). The OD of the samples is then determined at 450 nm using a microtiter plate reader (Softmax, Molecular Devices, Menlo Park, Calif.) resulting in the 0 minute reading. The plates are then agitated for 5 min on a microtiter plate shaker and the 5 minute reading is obtained in the plate reader. Aggregation is calculated from the decrease of OD at 450 nm at t=5 minutes compared to t=0 minutes and is expressed as % of the decrease in the ADP control samples after correcting for changes in the unaggregated control samples. IC50s were derived by non-linear regression analysis.

T1 sequence (Q9H244 whole entry): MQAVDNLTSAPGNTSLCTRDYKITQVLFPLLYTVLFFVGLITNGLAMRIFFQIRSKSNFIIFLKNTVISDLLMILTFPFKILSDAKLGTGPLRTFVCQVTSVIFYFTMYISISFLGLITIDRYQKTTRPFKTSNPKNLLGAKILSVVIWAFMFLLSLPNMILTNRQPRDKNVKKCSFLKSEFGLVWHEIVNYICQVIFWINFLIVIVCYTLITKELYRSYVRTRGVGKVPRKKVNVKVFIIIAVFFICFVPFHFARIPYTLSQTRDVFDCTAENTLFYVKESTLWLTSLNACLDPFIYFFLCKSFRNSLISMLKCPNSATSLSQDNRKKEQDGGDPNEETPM

Row | Structure (SMILES) | IC50 (P2Y12 receptor) | IC50 ([1]; Homo sapiens, Platelet) | IC50 [1]
1 | CNc1cc2c(cc1F)C(=O)N(c1ccc(C(=O)NC(c3cccc(Cl)c3)c3nnn[nH]3)cc1)CO2 (stereo not shown) [Compound 80, N-((3-chlorophenyl)(1H-tetrazol-5-yl)methyl)-4-(6-fluoro-7-(methylamino)-4-oxo-2H-benzo[e][1,3]oxazin-3(4H)-yl)benzamide] | 50 to 500 nM | > 30000 nM | 
2 | CNc1cc2[nH]c(=O)n(-c3ccc(C(=O)NC(C(=O)O)c4ccc(Cl)s4)cc3)c(=O)c2cc1F (stereo not shown) [Compound 5, 2-(5-chlorothiophen-2-yl)-2-(4-(6-fluoro-7-(methylamino)-2,4-dioxo-1,2-dihydroquinazolin-3(4H)-yl)benzamido)acetic acid] | < 50 nM |  | 10000 to 30000 nM
3 | CNc1cc2c(cc1F)C(=O)N(c1ccc(C(=O)NC(c3noc(=S)[nH]3)c3ccc(Cl)s3)cc1)CO2 (stereo not shown) [Compound 75, N-((5-chlorothiophen-2-yl)(5-thioxo-4,5-dihydro-1,2,4-oxadiazol-3-yl)methyl)-4-(6-fluoro-7-(methylamino)-4-oxo-2H-benzo[e][1,3]oxazin-3(4H)-yl)benzamide] | < 50 nM | 10000 to 30000 nM | 
4 | CNc1cc2[nH]c(=O)n(-c3ccc(C(=O)NC(C(=O)O)c4ccc(C)s4)cc3)c(=O)c2cc1F (stereo not shown) [Compound 19, 2-(4-(6-fluoro-7-(methylamino)-2,4-dioxo-1,2-dihydroquinazolin-3(4H)-yl)benzamido)-2-(5-methylthiophen-2-yl)acetic acid] | 50 to 500 nM | < 10000 nM | 
5 | CNc1cc2[nH]c(=O)n(-c3ccc(C(=O)N[C@H](c4noc(=O)[nH]4)c4ccc(Cl)s4)cc3)c(=O)c2cc1F [Compound 46, (R)-N-((5-chlorothiophen-2-yl)(5-oxo-4,5-dihydro-1,2,4-oxadiazol-3-yl)methyl)-4-(6-fluoro-7-(methylamino)-2,4-dioxo-1,2-dihydroquinazolin-3(4H)-yl)benzamide] | 50 to 500 nM | 10000 to 30000 nM | 
6 | CNc1cc2[nH]c(=O)n(-c3ccc(C(=O)NC(CC(=O)O)c4ccc(Cl)s4)cc3)c(=O)c2cc1F (stereo not shown) [Compound 27, 3-(5-chlorothiophen-2-yl)-3-(4-(6-fluoro-7-(methylamino)-2,4-dioxo-1,2-dihydroquinazolin-3(4H)-yl)benzamido)propanoic acid] | 50 to 500 nM | > 30000 nM | 
7 | CNc1cc2[nH]c(=O)n(-c3ccc(C(=O)N(CC(=O)O)Cc4ccc(Cl)s4)cc3)c(=O)c2cc1F [Compound 6, 2-(N-((5-chlorothiophen-2-yl)methyl)-4-(6-fluoro-7-(methylamino)-2,4-dioxo-1,2-dihydroquinazolin-3(4H)-yl)benzamido)acetic acid] | 50 to 500 nM | > 30000 nM | 
8 | CNc1cc2[nH]c(=O)n(-c3ccc(C(=O)NC(c4noc(=O)[nH]4)c4ccc(Cl)s4)cc3)c(=O)c2cc1F (stereo not shown) [Compound 21, N-((5-chlorothiophen-2-yl)(5-oxo-4,5-dihydro-1,2,4-oxadiazol-3-yl)methyl)-4-(6-fluoro-7-(methylamino)-2,4-dioxo-1,2-dihydroquinazolin-3(4H)-yl)benzamide] | < 50 nM | < 10000 nM | 
9 | CNc1cc2[nH]c(=O)n(-c3ccc(C(=O)NC(C(=O)O)c4ccc(Cl)s4)cc3)c(=O)c2cc1F (stereo not shown) [Compound 13, 2-(5-chlorothiophen-2-yl)-2-(4-(6-fluoro-7-(methylamino)-2,4-dioxo-1,2-dihydroquinazolin-3(4H)-yl)benzamido)acetic acid] | 50 to 500 nM | < 10000 nM | 
10 | CNc1cc2c(cc1F)C(=O)N(c1ccc(C(=O)NC(c3nnn[nH]3)c3ccc(Cl)s3)cc1)CO2 (stereo not shown) [Compound 54, N-((5-chlorothiophen-2-yl)(1H-tetrazol-5-yl)methyl)-4-(6-fluoro-7-(methylamino)-4-oxo-2H-benzo[e][1,3]oxazin-3(4H)-yl)benzamide] | < 50 nM | 10000 to 30000 nM | 
11 | CNc1cc2c(=O)n(-c3ccc(C(=O)NC(c4noc(=O)[nH]4)c4ccc(Cl)s4)cc3)c(=O)[nH]c2cc1F (stereo not shown) [Compound 50, N-((5-chlorothiophen-2-yl)(5-oxo-4,5-dihydro-1,2,4-oxadiazol-3-yl)methyl)-4-(7-fluoro-6-(methylamino)-2,4-dioxo-1,2-dihydroquinazolin-3(4H)-yl)benzamide] | 50 to 500 nM | > 30000 nM | 
12 | CNc1cc2[nH]c(=O)n(-c3ccc(C(=O)NC(C(=O)OCCN4CCOCC4)c4ccc(Cl)s4)cc3)c(=O)c2cc1F (stereo not shown) [Compound 35, 2-morpholinoethyl 2-(5-chlorothiophen-2-yl)-2-(4-(6-fluoro-7-(methylamino)-2,4-dioxo-1,2-dihydroquinazolin-3(4H)-yl)benzamido)acetate] | 50 to 500 nM | 10000 to 30000 nM | 
13 | CNc1cc2c(cc1F)C(=O)N(c1ccc(C(=O)NC(C(N)=O)c3ccc(Cl)s3)cc1)CO2 (stereo not shown) [Compound 70] | 50 to 500 nM | 10000 to 30000 nM | 
14 | CNc1cc2c(cc1F)C(=O)N(c1ccc(CNC(C(=O)O)c3ccc(Cl)s3)cc1)CO2 (stereo not shown) [Compound 105, 2-(5-chlorothiophen-2-yl)-2-(4-(6-fluoro-7-(methylamino)-4-oxo-2H-benzo[e][1,3]oxazin-3(4H)-yl)benzylamino)acetic acid] | 50 to 500 nM | > 30000 nM | 
15 | CNc1cc2c(cc1F)C(=O)N(c1ccc(C(=O)NC(c3nnn[nH]3)c3ccc(C)s3)cc1)CO2 (stereo not shown) [Compound 61, 4-(6-fluoro-7-(methylamino)-4-oxo-2H-benzo[e][1,3]oxazin-3(4H)-yl)-N-((5-methylthiophen-2-yl)(1H-tetrazol-5-yl)methyl)benzamide] | < 50 nM | 10000 to 30000 nM | 
16 | CC(C)Oc1ccc2[nH]c(=O)n(-c3ccc(C(=O)NC(C(=O)O)c4ccc(Cl)s4)cc3)c(=O)c2c1 (stereo not shown) [Compound 38, 2-(5-chlorothiophen-2-yl)-2-(4-(6-isopropoxy-2,4-dioxo-1,2-dihydroquinazolin-3(4H)-yl)benzamido)acetic acid] | > 500 nM |  | 
17 | CNc1cc2c(=O)n(-c3ccc(C(=O)NC(c4nnn[nH]4)c4ccc(Cl)s4)cc3)c(=O)[nH]c2cc1F (stereo not shown) [Compound 49, N-((5-chlorothiophen-2-yl)(1H-tetrazol-5-yl)methyl)-4-(7-fluoro-6-(methylamino)-2,4-dioxo-1,2-dihydroquinazolin-3(4H)-yl)benzamide] | > 500 nM |  | 
18 | CNc1cc2[nH]c(=O)n(-c3ccc(C(=O)NC(CO)c4ccc(Cl)s4)cc3)c(=O)c2cc1F (stereo not shown) [Compound 36] | 50 to 500 nM |  | 
19 | CNc1cc2[nH]c(=O)n(-c3ccc(C(=O)NC(C(=O)O)c4ccc(Cl)s4)c(Cl)c3)c(=O)c2cc1F (stereo not shown) [Compound 43, 2-(2-chloro-4-(6-fluoro-7-(methylamino)-2,4-dioxo-1,2-dihydroquinazolin-3(4H)-yl)benzamido)-2-(5-chlorothiophen-2-yl)acetic acid] | 50 to 500 nM |  | 
20 | Cc1ccc2c(c1)C(=O)N(c1ccc(C(=O)NC(C(=O)O)c3ccc(Cl)s3)cc1)CO2 (stereo not shown) [Compound 77, 2-(5-chlorothiophen-2-yl)-2-(4-(6-methyl-4-oxo-2H-benzo[e][1,3]oxazin-3(4H)-yl)benzamido)acetic acid] | > 500 nM |  | 
21 | CNc1cc2c(cc1F)C(=O)N(c1ccc(C(=O)NC(C(=O)O)c3ccccc3)cc1)CO2 (stereo not shown) [Compound 58, 2-(4-(6-fluoro-7-(methylamino)-4-oxo-2H-benzo[e][1,3]oxazin-3(4H)-yl)benzamido)-2-phenylacetic acid] | 50 to 500 nM |  | 
22 | CNc1cc2c(cc1F)C(=O)N(c1ccc(C(=O)NC(Cc3ccc(Cl)s3)C(=O)O)cc1)CO2 (stereo not shown) [Compound 57, 3-(5-chlorothiophen-2-yl)-2-(4-(6-fluoro-7-(methylamino)-4-oxo-2H-benzo[e][1,3]oxazin-3(4H)-yl)benzamido)propanoic acid] | 50 to 500 nM |  | 
